Patent US11053235B2, “Substituted 1,4-dihydropyrimidines for the treatment of HBV infection or HBV-induced diseases” (Janssen Sciences Ireland Unlimited Company, priority 2018, dated 2021)
pEC50: −log10 of the molar value.

Assays:
[1] = Cytotoxicity determination in HepG2.2.15 cells (CCK-8); assay type: cell-based; details: human, 6 days treatment, CCK-8, highest concentration 100 uM
Outline: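 HepG2.2.15 cells seeded at 5,000 cells/well in 2% FBS medium and exposed to compounds for 6 days (medium refreshed once), 8 three-fold dilutions from 100 uM. Viability read by CCK-8 after 2.5 h at 37 °C, absorbance 450 nm with 630 nm reference; CC50 calculated.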

HBV = assay: Anti-viral assay in HepG2.2.15 cells: HBV inhibitory activity (HBV DNA in culture medium by q-PCR); assay type: cell-based; details: Hepatitis B virus, HepG2.2.15, 144 h, HepG2.2.15 cells, 6 days treatment, HBV DNA in culture medium by q-PCR, highest concentration 10 uM; read-out: EC50
Outline: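 HepG2.2.15 cells seeded at 40,000/well in 2% FBS medium, dosed next day for 6 days (medium refreshed once midway); 8-point 3-fold dilutions from 10 uM top. HBV DNA in culture medium extracted and quantified by q-PCR; EC50 calculated from dose-response.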

Structure (SMILES) | CC50 at 6 days [1] | pEC50 (HBV)
CCOC(=O)C1=C(C2CCN(c3nc(C(F)(F)F)c(C(=O)O)s3)CC2)NC(c2nccs2)=NC1c1ccc(F)c(F)c1Cl (single isomer, unassigned) [II-79-B, 2-(4-(6-(2-Chloro-3,4-difluorophenyl)-5-(ethoxycarbonyl)-2-(thiazol-2-yl)-3,6-dihydropyrimidin-4-yl)piperidin-1-yl)-4-(trifluoromethyl)thiazole-5-carboxylic Acid] | 1140 nM | 7.89
CCOC(=O)C1=C(C2CCN(c3nc(C(=O)O)cs3)CC2)NC(c2nccs2)=NC1c1ccc(F)c(F)c1Cl (single isomer, unassigned) [II-80-B, 2-(4-(6-(2-Chloro-3,4-difluorophenyl)-5-(ethoxycarbonyl)-2-(thiazol-2-yl)-3,6-dihydropyrimidin-4-yl)piperidin-1-yl)thiazole-4-carboxylic Acid] | 10200 nM | 7.35
COC(=O)C1=C(C2CCN(c3ncc(C)c(C(=O)O)n3)CC2)NC(c2nccs2)=NC1c1ccc(Br)cc1Cl (single isomer, unassigned) [II-81-B, 2-(4-(6-(4-bromo-2-chlorophenyl)-5-(methoxycarbonyl)-2-(thiazol-2-yl)-3,6-dihydropyrimidin-4-yl)piperidin-1-yl)-5-methylpyrimidine-4-carboxylic Acid] | 12400 nM | 7.27
COC(=O)C1=C(C2CCN(c3ncc(C(=O)O)s3)CC2)NC(c2nccs2)=NC1c1ccc(F)c(F)c1Br (single isomer, unassigned) [II-82-B, 2-(4-(6-(2-Bromo-3,4-difluorophenyl)-5-(methoxycarbonyl)-2-(thiazol-2-yl)-3,6-dihydropyrimidin-4-yl)piperidin-1-yl)thiazole-5-carboxylic Acid] | 9480 nM | 8.04
COC(=O)C1=C(C2CCN(c3ncc(C(=O)O)s3)CC2)NC(c2nccs2)=NC1c1cccc(F)c1Br (single isomer, unassigned) [II-83-B, 2-(4-(6-(2-Bromo-3-fluorophenyl)-5-(methoxycarbonyl)-2-(thiazol-2-yl)-3,6-dihydropyrimidin-4-yl)piperidin-1-yl)thiazole-5-carboxylic Acid] | 2840 nM | 7.80
COC(=O)C1=C(C2CCN(c3ncc(C(=O)O)s3)CC2)NC(c2nccs2)=NC1c1ccc(F)cc1Br (single isomer, unassigned) [II-84-B, 2-(4-(6-(2-Bromo-4-fluorophenyl)-5-(methoxycarbonyl)-2-(thiazol-2-yl)-3,6-dihydropyrimidin-4-yl)piperidin-1-yl)thiazole-5-carboxylic Acid] | 14900 nM | 8.19
CCOC(=O)C1=C(C2CCN(c3nc(C(=O)O)co3)C2)NC(c2nccs2)=NC1c1ccc(F)c(F)c1Cl (single isomer, unassigned) [II-85-A, 2-(3-(6-(2-chloro-3,4-difluorophenyl)-5-(ethoxycarbonyl)-2-(thiazol-2-yl)-3,6-dihydropyrimidin-4-yl)pyrrolidin-1-yl)oxazole-4-carboxylic Acid] | 4490 nM | 6.14
CCOC(=O)C1=C(C2CN(c3nc(C(=O)O)co3)C2)NC(c2nccs2)=NC1c1ccc(F)c(F)c1Cl (single isomer, unassigned) [II-86-B, 2-(3-(6-(2-Chloro-3,4-difluorophenyl)-5-(ethoxycarbonyl)-2-(thiazol-2-yl)-3,6-dihydropyrimidin-4-yl)azetidin-1-yl)oxazole-4-carboxylic Acid] | 9400 nM | 5.54
COC(=O)C1=C(C2CN(C(=O)c3ccccc3)C2)NC(c2nccs2)=NC1c1ccc(F)cc1Cl (single isomer, unassigned) [II-87-A, Methyl 6-(1-benzoylazetidin-3-yl)-4-(2-chloro-4-fluorophenyl)-2-(thiazol-2-yl)-1,4-dihydropyrimidine-5-carboxylate] | 9860 nM | 5.40
COC(=O)C1=C(C2CN(C(=O)c3cnoc3C)C2)NC(c2nccs2)=NC1c1ccc(F)cc1Cl (single isomer, unassigned) [II-88-B, methyl 4-(2-chloro-4-fluorophenyl)-6-(1-(5-methylisoxazole-4-carbonyl)azetidin-3-yl)-2-(thiazol-2-yl)-1,4-dihydropyrimidine-5-carboxylate] | 9960 nM | 5.69
COC(=O)C1=C(C2CCN(c3cc(C(=O)O)c(C)cn3)CC2)NC(c2nccs2)=NC1c1ccc(F)cc1Cl (single isomer, unassigned) [II-89-B, 2-(4-(6-(2-Chloro-4-fluorophenyl)-5-(methoxycarbonyl)-2-(thiazol-2-yl)-3,6-dihydropyrimidin-4-yl)piperidin-1-yl)-5-methylisonicotinic Acid] | 20300 nM | 8.05
COC(=O)C1=C(C2CCN(c3ncc(N4CCC(C(=O)O)CC4)cn3)CC2)NC(c2nccs2)=NC1c1ccc(F)cc1Cl (single isomer, unassigned) [II-90-B, 1-(2-(4-(6-(2-chloro-4-fluorophenyl)-5-(methoxycarbonyl)-2-(thiazol-2-yl)-3,6-dihydropyrimidin-4-yl)piperidin-1-yl)pyrimidin-5-yl)piperidine-4-carboxylic acid] | 19000 nM | 8.27
COC(=O)C1=C(C2CCN(c3ncc(N(C)C)c(C(=O)O)n3)CC2)NC(c2nccs2)=NC1c1ccc(F)c(F)c1Cl (single isomer, unassigned) [II-91-B, 2-(4-(6-(2-chloro-3,4-difluorophenyl)-5-(methoxycarbonyl)-2-(thiazol-2-yl)-3,6-dihydropyrimidin-4-yl)piperidin-1-yl)-5-(dimethylamino)pyrimidine-4-carboxylic Acid] | 26100 nM | 7.92
COC(=O)C1=C(C2CCN(c3ncc(N)c(C(=O)O)n3)CC2)NC(c2nccs2)=NC1c1ccc(F)c(F)c1Cl (single isomer, unassigned) [II-92-B, 5-amino-2-(4-(6-(2-chloro-3,4-difluorophenyl)-5-(methoxycarbonyl)-2-(thiazol-2-yl)-3,6-dihydropyrimidin-4-yl)piperidin-1-yl)pyrimidine-4-carboxylic Acid] | 18300 nM | 8.15
COC(=O)C1=C(C2CCN(c3cc(C(=O)O)c(N(C)C)cn3)CC2)NC(c2nccs2)=NC1c1ccc(F)c(F)c1Cl (single isomer, unassigned) [II-93-B, 2-(4-(6-(2-chloro-3,4-difluorophenyl)-5-(methoxycarbonyl)-2-(thiazol-2-yl)-3,6-dihydropyrimidin-4-yl)piperidin-1-yl)-5-(dimethylamino)isonicotinic Acid] | 28900 nM | 8.18
COC(=O)C1=C(C2CCN(c3ncc(C)c(C(=O)O)n3)CC2)NC(c2nccs2)=NC1c1ccc(F)c(F)c1C (single isomer, unassigned) [II-94-B, 2-(4-(6-(3,4-Difluoro-2-methylphenyl)-5-(methoxycarbonyl)-2-(thiazol-2-yl)-3,6-dihydropyrimidin-4-yl)piperidin-1-yl)-5-methylpyrimidine-4-carboxylic Acid] | 26800 nM | 8.21
